Where two headings read alike, the source gives them in different places.
Legend:
endogenous PTH 1-84 = settings: healthy volunteers, no further suppression at higher doses, cited from earlier work
[1] = test system: individuals with hypoparathyroidism; format: in vivo, human; settings: for Active Vitamin D dose / Calcium supplement dose / Serum Calcium: mean of Compound 1 group
From the text: PaTHway is a phase 3, multicenter (North America and Europe), randomized, double-blind, placebo-controlled, parallel-group, 26-week trial with an open-label extension of 156 weeks that evaluated the efficacy, safety, and tolerability of once-daily Compound 1 as PTH replacement therapy in individuals with hypoparathyroidism. All participants who completed the 26- week blinded treatment period were allowed to enroll in the 156-week open-label extension period. (ClinicalTrials.gov identifier: NCT04701203; EudraCT No.: 2020-003380-26).
Once enrolled, participants were randomized 3:1 into 2 treatment groups: Compound 1 18 μg PTH(1-34)/day or placebo (excipient solution) mimicking 18 μg/day, both co-administered with conventional therapy (active vitamin D and elemental calcium).
Randomization was stratified by etiology of hypoparathyroidism (postsurgical vs. non-surgical). In addition to frequent laboratory visits to measure serum calcium levels, the blinded treatment period included 10 clinic visits over 26 weeks. Once-daily treatment with Compound 1 or placebo was delivered by a modified Ypsomed UnoPen Fix pen injector using 31-gauge, 5 mm pen needles to deliver doses of 6-30 μg/injection in a volume of ≤100 μL to either abdomen or anterior thigh, rotating injection sites.
All participants were initially prescribed Compound 1 18 μg PTH(1-34)/day or a corresponding volume of placebo and were individually and progressively titrated to an optimal dose (allowable range 6-60 μg/day) in increments of 3 μg/day. Titration of study drug and conventional therapy was performed according to a protocol-specified algorithm guided by serum calcium values (Example 2). The algorithm was intended to facilitate independence from conventional therapy by discontinuation of active vitamin D and calcium in response to reestablishment of physiological PTH signaling with Compound 1 treatment. In the setting of normocalcemia, the protocol directs incremental increases in study drug (Compound 1 or placebo) accompanied by stepwise reductions of active vitamin D by 33-50% of the starting dose, followed by reductions of calcium in at least 1500 mg/day increments once vitamin D has been discontinued.
Participants were permitted to take elemental calcium <600 mg/day as a nutritional supplement if required to meet the generally recommended dietary intakes of calcium.
Treatment with Compound 1 was carried out in accordance with Example 1.

Compound 5: polypeptide having the sequence AVAEIQLMHQRAKWIQDARR RAFLHKLIAEIHTAEI, SEQ ID NO:122 (AVAEIQLMHQRAKWIQDARRRAFLHKLIAEIHTAEI; Artificial random coil) [reference compound]
dose able to suppress endogenous PTH 1-84 (endogenous PTH 1-84; daily dosing): 60 µg

palopegteriparatide [Compound 1]
dose that fully suppresses endogenous PTH 1-84 (endogenous PTH 1-84): 16 µg/day | time to complete discontinuation of active vitamin D ([1]; Compound 1 group): ≤ 8 weeks | SAEs considered related to treatment ([1]; in vivo): one | participants reporting SAEs ([1]; in vivo): 8.2% | Active Vitamin D dose ([1]; week 0): 0.992 µg | Calcium supplement dose ([1]; week 0): 1748.03 mg | Serum Calcium ([1]; week 0): 8.8 mg/dL | Active Vitamin D dose ([1]; week 2): 0.098 µg | Calcium supplement dose ([1]; week 2): 1524.1 mg | Serum Calcium ([1]; week 2): 9.8 mg/dL | Active Vitamin D dose ([1]; week 4): 0.008 µg | Calcium supplement dose ([1]; week 4): 548.77 mg | Serum Calcium ([1]; week 4): 9.6 mg/dL | Active Vitamin D dose ([1]; week 6): 0.004 µg | Calcium supplement dose ([1]; week 6): 229.1 mg | Serum Calcium ([1]; week 6): 9.7 mg/dL | Active Vitamin D dose ([1]; week 8): 0 µg | Calcium supplement dose ([1]; week 8): 105.74 mg | Serum Calcium ([1]; week 8): 9.5 mg/dL | Active Vitamin D dose ([1]; week 10): 0 µg | Calcium supplement dose ([1]; week 10): 114.17 mg | Serum Calcium ([1]; week 10): 9.5 mg/dL | Active Vitamin D dose ([1]; week 12): 0 µg | Calcium supplement dose ([1]; week 12): 102.46 mg | Serum Calcium ([1]; week 12): 9.5 mg/dL | Active Vitamin D dose ([1]; week 16): 0 µg | Calcium supplement dose ([1]; week 16): 182.38 mg | Serum Calcium ([1]; week 16): 9.3 mg/dL | Active Vitamin D dose ([1]; week 20): 0 µg | Calcium supplement dose ([1]; week 20): 300.83 mg | Serum Calcium ([1]; week 20): 9.3 mg/dL | Active Vitamin D dose ([1]; week 26): 0 µg | Calcium supplement dose ([1]; week 26): 274.17 mg | Serum Calcium ([1]; week 26): 8.9 mg/dL | mean serum calcium (sCa) levels ([1]; when adequately titrated, all study visits): in the normal range
